Laboratory results from patent publication US7067665B2, “Oxybenzamide derivatives useful for inhibiting factor Xa or Vlla” (Sanofi-Aventis Deutschland GmbH, priority 2000, dated 2006).
Read-outs that look alike come from different tables or passages of the source.

Target: T1, human factor Xa (Homo sapiens, UniProt P00742)
T1 construct: 25 μl human factor Xa (Enzyme Research Laboratories, Inc; South Bend, Ind.); purchased Enzyme Research Laboratories, Inc; South Bend, Ind
Assay: Factor Xa chromogenic assay (substrate S-2765);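 note: purified enzyme, compound preincubated with the enzyme for 10 min before substrate addition starts the reaction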
Assay type: biochemical
Details: read-out: Ki(FXa)

[1] = inhibition constant for inhibition of factor Xa, IC50 corrected for substrate competition, 25° C., enzyme 0.5 nM, substrate 140 μM

T1 sequence (P00742 235-488 limits assumed): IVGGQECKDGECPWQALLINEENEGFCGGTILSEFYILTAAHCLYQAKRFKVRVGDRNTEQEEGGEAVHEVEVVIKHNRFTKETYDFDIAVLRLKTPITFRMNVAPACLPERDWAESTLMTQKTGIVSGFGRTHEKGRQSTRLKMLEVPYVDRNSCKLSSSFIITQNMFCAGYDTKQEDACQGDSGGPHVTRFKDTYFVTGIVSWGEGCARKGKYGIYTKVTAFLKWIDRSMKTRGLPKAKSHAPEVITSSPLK
T1 sequence (P00742 41-179 partner limits assumed): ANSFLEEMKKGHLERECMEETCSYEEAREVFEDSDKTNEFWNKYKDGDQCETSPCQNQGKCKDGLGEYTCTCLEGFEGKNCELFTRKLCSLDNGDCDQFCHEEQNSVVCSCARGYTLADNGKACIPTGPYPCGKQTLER

Ki [1] | Ki | Structure (SMILES)
2180 nM | – | COc1ccc(C(=O)N2CCN(CC(=O)N3CCCC3)CC2)cc1OCCc1ccc(Cl)cc1Cl [Example 14, 2-(4-{3-[2-(2,4-Dichlorophenyl)-ethoxy]-4-methoxy-benzoyl}-piperazin-1-yl)-1-pyrrolidin-1-yl-ethanone]
– | 69500 nM | COc1ccc(C(=O)NCC2CCN(c3ccncc3)CC2)cc1OCC1(c2ccc(Cl)cc2)CC1 [Example 140]
1130 nM | – | COc1ccc(C(=O)NCC2CC(c3ccncc3)=NO2)cc1OCCc1ccc(Cl)cc1Cl (centres unmarked) [Example 24, 3-[2-(2,4-Dichloro-phenyl)-ethoxy]-4-methoxy-N-(3-pyridin-4-yl-4,5-dihydro-isoxazol-5-ylmethyl)-benzamide]
5410 nM | – | COc1ccc(C(=O)N2CCN(c3ccncc3)CC2)cc1OCCc1ccc(Cl)cc1Cl [Example 3, {3-[2-(2,4-Dichlorophenyl)-ethoxy]-4-methoxy-phenyl}-(4-pyridin-4-yl-piperazin-1-yl)-methanone]
2220 nM | – | COc1ccc(C(=O)NCCCN2CCCCC2)cc1OCCc1ccc(Cl)cc1Cl [Example 15, 3-[2-(2,4-Dichlorophenyl)-ethoxy]-4-methoxy-N-(3-piperidin-1-yl-propyl)-benzamide]
– | 188 nM | COc1ccc(C(=O)NCC2CCN(c3ccncc3)CC2)cc1OCc1cc(-c2ccc(Cl)s2)on1 [Example 93, 3-[5-(5-Chloro-thiophen-2-yl)-isoxazol-3-ylmethoxy]-4-methoxy-N-(3,4,5,6-tetrahydro-2H-[1,4′]bipyridinyl-4-ylmethyl)-benzamide]
– | 40900 nM | COc1ccc(C(=O)NC2CCN(C3CCCCC3)CC2)cc1OCCc1ccc(Cl)cc1Cl [Example 128, N-(1-Cyclohexyl-piperidin-4-yl)-3-[2-(2,4-dichloro-phenyl)-ethoxy]-4-methoxy-benzamide]
– | 70 nM | O=C(NCC1CCN(c2ccncc2)CC1)c1cncc(OCCc2ccc(Cl)cc2Cl)c1 [Example 87]
1480 nM | – | COc1ccc(C(=O)NCC2CCN(c3cc[n+]([O-])cc3)CC2)cc1OCCc1ccc(Cl)cc1Cl [Example 66]
6200 nM | – | O=C(c1ccc(CO)c(OCCc2ccc(Cl)cc2Cl)c1)N1CCN(Cc2cc[n+]([O-])cc2)CC1 [Example 18, {3-[2-(2,4-Dichloro-phenyl)-ethoxy]-4-hydroxymethyl-phenyl}-[4-(1-oxy-pyridin-4-ylmethyl)-piperazin-1-yl]-methanone]
– | 1340 nM | COc1ccc(COc2cc(C(=O)NCC3CCN(c4ccncc4)CC3)ccc2C)cc1 [Example 240]
– | 1390 nM | O=C(Nc1cccc(C(=O)NCC2CCN(c3ccncc3)CC2)c1)Nc1ccc(Cl)cn1 [Example 91, 3-[3-(5-Chloro-pyridin-2-yl)-ureido]-N-(3,4,5,6-tetrahydro-2H-[1,4′]bipyridinyl-4-ylmethyl)-benzamide]
– | 68 nM | O=C(NCC1CCN(c2ccncc2)CC1)c1ccc(Cl)c(OCCc2ccc(F)cc2Cl)c1 [Example 207]
– | 3010 nM | COc1ccc(C(=O)N2CCN(Cc3ccc(F)cc3)CC2)cc1OCCc1ccc(Cl)cc1Cl [Example 12, {3-[2-(2,4-Dichlorophenyl)-ethoxy]-4-methoxy-phenyl}-[4-(4-fluorobenzyl)-piperazin-1-yl]-methanone]
– | 24 nM | COc1cc(C(=O)NCC2CCN(c3ccnc(C)c3)CC2)cc(OCCc2ccc(Cl)cc2Cl)c1Cl [Example 168]
– | 298 nM | Cc1ccc(C(=O)N2CCN(Cc3ccncc3)CC2)cc1OCCc1ccc(Cl)cc1Cl [Example 4, {3-[2-(2,4-Dichlorophenyl)-ethoxy]-4-methyl-phenyl}-(4-pyridin-4-ylmethyl-piperazin-1-yl)-methanone]
– | 59 nM | O=C(NCC1CCN(c2ccncc2)CC1)c1ccc(F)c(OCCc2ccc(F)cc2Cl)c1 [Example 215]
1410 nM | – | COc1ccc(C(=O)N2CCN(CC(=O)N(C)C)CC2)cc1OCCc1ccc(Cl)cc1Cl [Example 13, 2-(4-{3-[2-(2,4-Dichlorophenyl)-ethoxy]-4-methoxy-benzoyl}-piperazin-1-yl)-N,N-dimethyl-acetamide]
3040 nM | – | COc1ccc(C(=O)NCC2CCN(c3ccccn3)CC2)cc1OCCc1ccc(Cl)cc1Cl [Example 68, 3-[2-(2,4-Dichloro-phenyl)-ethoxy]-4-methoxy-N-(3,4,5,6-tetrahydro-2H-[1,2′]bipyridinyl-4-ylmethyl)-benzamide]
– | 3710 nM | O=C(NCC1CCN(c2ccncc2)CC1)c1cccc(S(=O)(=O)Nc2ccc(Cl)cn2)c1 [Example 99, 3-(5-Chloro-pyridin-2-ylsulfamoyl)-N-(3,4,5,6-tetrahydro-2H-[1,4′]bipyridinyl-4-ylmethyl)-benzamide]
– | 255 nM | CCOc1cc(C(=O)N2CCN(Cc3ccncc3)CC2)cc(OCCc2ccc(Cl)cc2Cl)c1Br [Example 180, {4-Bromo-3-[2-(2,4-dichloro-phenyl)-ethoxy]-5-ethoxy-phenyl}-(4-pyridin-4-ylmethyl-piperazin-1-yl)-methanone]
– | 20 nM | COc1cc(C(=O)NCC2CCN(c3ccncc3)CC2)cc(OCCc2ccc(Cl)cc2)c1Br [Example 224, 4-Bromo-3-[2-(4-chloro-phenyl)-ethoxy]-5-methoxy-N-(3,4,5,6-tetrahydro-2H-[1,4′]bipyridinyl-4-ylmethyl)-benzamide]
– | 275 nM | O=C(NCC1CCN(c2ccncc2)CC1)c1cccc(CNCc2ccc(Cl)cc2Cl)c1 [Example 233, 3-[(2,4-Dichloro-benzylamino)-methyl]-N-(3,4,5,6-tetrahydro-2H-[1,4′]bipyridinyl-4-ylmethyl)-benzamide]
– | 226 nM | CCOc1cc(C(=O)N2CCN(Cc3ccncc3)CC2)cc(OCCc2ccc(Cl)cc2Cl)c1OCC [Example 177, {3-[2-(2,4-Dichloro-phenyl)-ethoxy]-4,5-diethoxy-phenyl}-(4-pyridin-4-ylmethyl-piperazin-1-yl)-methanone]
– | 108 nM | COc1cc(C(=O)N2CCN(Cc3ccncc3)CC2)cc(OCCc2ccc(Cl)cc2Cl)c1Cl [Example 200, {4-Chloro-3-[2-(2,4-dichloro-phenyl)-ethoxy]-5-methoxy-phenyl}-(4-pyridin-4-ylmethyl-piperazin-1-yl)-methanone]
407 nM | – | Cc1ccc(C(=O)N2CCN(Cc3cc[n+]([O-])cc3)CC2)cc1OCCc1ccc(Cl)cc1Cl [Example 17, {3-[2-(2,4-Dichloro-phenyl)-ethoxy]-4-methyl-phenyl}-[4-(1-oxy-pyridin-4-ylmethyl)-piperazin-1-yl]-methanone]
– | 58 nM | O=C(NCC1CCN(c2ccncc2)CC1)c1cc(OCCc2ccc(Cl)cc2Cl)cc(C(=O)NCC2CCN(c3ccncc3)CC2)c1 [Example 227, 5-[2-(2,4-Dichloro-phenyl)-ethoxy]-N,N′-bis-(3,4,5,6-tetrahydro-2H-[1,4′]bipyridinyl-4-ylmethyl)-isophthalamide]
960 nM | – | COc1ccc(C(=O)NCC2CC(c3cc[n+]([O-])cc3)=NO2)cc1OCCc1ccc(Cl)cc1Cl (centres unmarked) [Example 28, 3-[2-(2,4-Dichloro-phenyl)-ethoxy]-N-[3-(1-hydroxy-pyridin-4-yl)-4,5-dihydro-isoxazol-5-ylmethyl]-4-methoxy-benzamide]
1380 nM | – | COc1ccc(C(=O)N2CCN(Cc3ccc(C#N)cc3)CC2)cc1OCCc1ccc(Cl)cc1Cl [Example 11, 4-(4-{3-[2-(2,4-Dichloro-phenyl)-ethoxy]-4-methoxy-benzoyl}-piperazin-1-ylmethyl)-benzonitrile]
